Experimental data from patent publication US10525044B2, “Treatment for chemotherapy-induced peripheral neuropathy” (priority 2013, dated 2020).
Values joined by “and” are separate entries in the source; they are usually repeats but may differ in a detail not shown here. Identical values can stand only once.

Legend:
[1] = system: intracellular free calcium; settings: 5 μM; ischemic condition (19-fold increase); cited from earlier work
[2] = cell-free system, EDTA as positive control; cited from earlier work
[3] = system: human Alzheimer's disease-derived and age-matched olfactory neuroepithelial cells; settings: via suppression of intracellular reactive oxygen species; cited from earlier work
[4] = system: mouse liver cancer cell line BNLT3; assay: MTS assay in BNLT3 cancer cells; assay type: cell-based
Description: (§1) Cancer Cell Culture. The mouse liver cancer cell line BNLT3 (gift of Dr. Jack Wands, Brown University) and the human lung cancer cell line H460 (ATCC) were seeded into 96-well plates at a density of 4,000 cells/well and cultured at 37° C., 5% CO2, in DMEM (11965, Gibco) supplemented with 10% fetal bovine serum, 20 mM HEPES, 1 mM sodium pyruvate, and […] gentamycin (all reagents came from Gibco).
(§2) Cell Insults and Treatments. Determination of concentration for each anticancer drug in our experiments was based on its reported concentration in human cerebral spinal fluid (CSF) in chemotherapy, literature report of its neurotoxicity in culture, and our preliminary in vitro experimental data. At 13 d.i.v., the neuronal cell cultures were insulted with 100 μM of MTX (M9929, Sigma), 25 μM of 5-FU (F6627, Sigma), or 3.5 μM of CDDP (sc-200896, Santa Cruz) for 3 days in absence or presence of PAN 811.Cl.H2O. For ROS examination, the neurons were insulted with both 100 μM of MTX and 25 μM of 5-FU by 15 d.i.v. PAN-811.Cl.H2O was added to cultures to final concentrations of 1.25, 2.5, 5, and 10 μM at the same time as addition of the anticancer drugs. For cancer cell lines, the cells were insulted by the second day of cell seeding with the same concentration of MTX, 5-FU, or CDDP as used in neuronal culture in the absence or presence of 10 μM PAN-811.Cl.H2O for another 3 days.
(§3) Quantitative Assays and Morphological Assessment. Cell membrane integrity and mitochondrial function of either neurons or cancer cells were measured with LDH and 3-(4,5-dimethylthiazol-2-yl)-5-(3-carboxymethoxyphenyl)-2-(4-sulfophenyl)-2H-tetrazolium [MTS] analyses, respectively. The latter has been used to quantify cell survival. For the LDH assay, a mixture of a 35 μL aliquot of culture supernatant and 17.5 μL of Mixed Substrate, Enzyme and Dye Solutions (Sigma) was incubated at room temperature (RT) for 30 minutes. For the MTS assay, 10 μL of MTS reagent (Promega) was added to a culture well containing neurons in 50 μL of medium. The preparations were incubated at 37° C. for 2 hours. The preparations for both assays were then spectrophotometrically measured at 490 nm using a 96-well plate reader (Mode 550, Bio-Rad). Neuronal cell death was morphologically determined based on the integrity of the cell soma and continuity of neuronal processes. The change in number of cancer cells was judged directly by cell density. Cells were photographed under an inverted phase contrast microscope (IX 70, Olympus) using 10× or 20× objective.
(§4) Data Analysis. Data were generated from 4-6 replicate wells, expressed as mean±standard deviation (SD), and statistically evaluated at a significance level of 1% with one factor ANOVA or Student's t-test by using software VASSARSTATS (http://vassarstats.net/) followed by the Tukey HSD test. Figure symbols are as follows: #, P<0.05, and ##, P<0.01, compared with control; *, P<0.05, and **, P<0.01, compared with the insulted group; §§, P<0.01, compared with PAN-811 treated group by Student's t-test.

[5] = system: ischemic neurodegeneration; settings: 0.45 μM; cited from earlier work
[6] = system: hydrogen peroxide-induced LDH release; settings: cited from earlier work
[7] = system: human lung cancer cell line H460; assay: LDH assay (membrane integrity) in H460 cancer cells; assay type: cell-based
Description: as §1
as §2, with “[…] […]” for “At 13 d.i.v., the neuronal cell cultures were insulted with 100 μM of MTX (M9929, Sigma), 25 μM of 5-FU (F6627, Sigma), or 3.5 μM of CDDP (sc-200896, Santa Cruz) for 3 days in absence or presence of PAN 811.Cl.H2O. For ROS examination, the neurons were insulted with both 100 μM of MTX and 25 μM of 5-FU by 15 d.i.v.”
as §3, §4

cultured neuronal cells = settings: cited from earlier work
[8] = system: mixed cortical and striatal neurons; assay: LDH assay (cell membrane integrity) in neuronal cell culture; assay type: cell-based
Description: Neuronal Cell Culture. Mixed cortical and striatal neurons fromembryonic day 17 male Sprague-Dawley rats (tissue obtained from NIH) were seeded into poly-D-lysine coated 96-well plates at density of 50,000 cells/well and initially cultured at 37° C., 5% CO2, in neurobasal medium (NB) with B27 supplement (Invitrogen) containing full strength of AOs to obtain highly enriched (95%) neurons. Since AOs, including vitamin E, vitamin E acetate, superoxide dismutase (SOD), catalase (CAT), and GSH, are additives to culture medium, reduction of AO concentration in culture medium provides an approach to determine the level of OS involvement in a neurotoxic process. In our study, the culture medium was replaced at a 50% ratio with NB plus B27 minus AOs twice at days 7 and 9 to set AO concentrations as 50% and 25%, respectively. At 16 days in vitro (d.i.v.), a fraction of the culture medium was harvested for lactate dehydrogenase (LDH) assay, and then AO concentration was reduced to 12.5% and cultured for a further 5 hours prior to ending the experiment.
as §2, §3, §4

[9] = 3.5 μM CDDP and 10 μM PAN-811, 3 days
[10] = 100 μM MTX and 10 μM PAN-811, 3 days

SMILES: NC(=S)N/N=C/c1ncccc1N [PAN-811, 3-aminopyridine-2-carboxaldehyde thiosemicarbazone]
- reduction of elevated intracellular free calcium [1]: 72%
- chelation of free calcium [2]: as efficiently as EDTA
- oxidative stress-induced cell death [3]: inhibited
- MTS reading, cotreatment vs PAN-811 alone [4, 9]: did not introduce an extra reduction in MTS reading
- inhibition of the effect of MTX, 5-FU, or CDDP on BNLT3 cells ([4]; 10 μM PAN-811): did not show any inhibition
- synergistic effect with each tested anticancer drug on BNLT3 cell growth ([4]; 10 μM PAN-811): neither did it demonstrate any synergistic effect
- MTS reading, cotreatment vs 5-FU alone ([4]; 25 μM 5-FU and 10 μM PAN-811, 3 days): caused a further reduction in MTS reading
- MTS reading, cotreatment vs MTX alone [4, 10]: did not cause any further reduction in MTS reading
- ischemic neurodegeneration [5]: fully blocked
- suppression of hydrogen peroxide-induced LDH release ([6]; 1 μM, vs untreated/H2O2-insulted group): 78%
- suppression of hydrogen peroxide-induced LDH release, maximal protection ([6]; 10 μM, vs untreated and H2O2-insulted group): 90%
- EC50 ([6]; read-out: EC50, protection against hydrogen peroxide-induced LDH release): ~550 nM
- increase in LDH reading, cotreatment with CDDP [7, 9]: 57%
- effect on MTX-, 5-FU-, or CDDP-induced membrane leakage ([7]; 10 μM PAN-811): inhibitory effect
- reduction of LDH reading compared with MTX group, cotreatment [7, 10]: 70%
- increase in LDH reading in culture supernatant ([7]; each agent alone, 3 days: MTX 100 μM, 5-FU 25 μM, CDDP 3.5 μM, PAN-811 10 μM): 31% and 30%
- neuroprotection against glutamate insult (cultured neuronal cells; cells pretreated with 10 μM for 24 h): Nearly complete neuroprotection
- glutamate-induced excitatory cytotoxicity (cultured neuronal cells): prevents
- LDH release in CDDP-insulted cultures ([8]; 5 μM PAN-811, 3.5 μM CDDP): fully blocked
- LDH release in 5-FU-insulted cultures ([8]; 5 μM PAN-811, 25 μM 5-FU): fully blocked
- LDH release in MTX-insulted cultures ([8]; 5 μM PAN-811, 100 μM MTX): fully blocked
- MTX/5-FU-elicited LDH increase ([8]; 10 μM PAN-811, 100 μM MTX and 25 μM 5-FU): fully inhibited
- suppression of MTX/5-FU-elicited LDH release, concentration dependence ([8]; PAN-811 1.25 to 10 μM, 100 μM MTX and 25 μM 5-FU): concentration-dependent suppression
- LDH increase caused by each anticancer drug, dose dependence ([8]; neurons, MTX 100 μM, 5-FU 25 μM or CDDP 3.5 μM): dose-dependently suppressed
